The structures appear in SMILES notation.

A short description of data set [1]: Stress test of compositions with different EIDD-1931 concentrations (60° C., 7 and 14 days). Type of data set: physicochemical. The following applies: API. Here is the method: Therefore, the concentration of EIDD-1931 was adjusted, and another stress test was conducted to evaluate how the resulting drugs degrade in 7 and 14 days.
The nature of data set [2]: Solubility / precipitation in the pharmaceutical solution composition. Format: physicochemical. The following applies: drug prepared with 20 mg/ml.

`O=c1nc(NO)ccn1[C@@H]1O[C@H](CO)[C@@H](O)[C@H]1O` [EIDD-1931, β-D-N4-hydroxycytidine]: in data set [1], the Single-impurity percentage was 0.01/0.01% and the total-impurity percentage is given as 0.01/0.01%. In data set [1] (impurity test), this molecule showed a Theoretical value of 93.25%. The precipitation entry in data set [2] was “had precipitation issues”.

The values are drawn from patent US20250186474A1 (CHINA CHEMICAL & PHARMACEUTICAL CO., LTD., priority 2023, published 2025).
